Test results reported in patent publication US20230181597A1, “METAL COMPLEXES OF NOCARDAMINE AND THEIR USE IN PHARMACEUTICAL COMPOSITIONS” (priority 2014, published 2023).

Experiments:
[1] = cited from earlier work
[2] = system: croton oil-induced irritant contact dermatitis (ICD) in mice ears; assay: Croton oil-induced irritant contact dermatitis (ICD) model, ear swelling; assay type: in vivo, Balb/c female mice
IL-1α = IL-1α level in ear tissue of ICD mice (ELISA); assay type: in vivo, Balb/c female mice; conditions: t=6 h after croton oil, 0.5% ointment (FIG. 6A)
Procedure: (§1) The samples were homogenized, and protein concentration was measured by Bradford procedure. The concentration of cytokines was determined by ELISA method, using commercially available kits according to the Manufacturer's protocols (RayBiotech, GA, USA).
(§2) In order to study the underlying mechanism of the zinc-nocardamine complex, its assumed anti-inflammatory activity was tested by measuring the concentrations of various pro-inflammatory cytokines, in the ears, along the experimental protocol, specifically, IL-1α, IL-6, IL-17 and TNF-α. The concentration of these cytokines were measured in ear tissue that had been exposed to croton oil (at t=0) and was left untreated to t=6 h. The concentration was compared to the concentrations at t=6 h, in ears which were exposed at t=0, and treated with the complex at t=3 h.
(§3) The effect of ICD-induced inflammatory process on the concentration of IL-1α, IL-6, TNF-α and IL-17 within the ear tissue is shown in FIG. 6A-6D. […] The concentration of the cytokines was determined by ELISA method, using commercially available kits, according to the Manufacturer protocol (RayBiotech, GA, USA)

IL-6 = IL-6 level in ear tissue of ICD mice (ELISA); assay type: in vivo, Balb/c female mice; conditions: t=6 h after croton oil, 0.5% ointment (FIG. 6B)
Procedure: as §1, §2, §3

TNF-α = TNF-α level in ear tissue of ICD mice (ELISA); assay type: in vivo, Balb/c female mice; conditions: t=6 h after croton oil, 0.5% ointment (FIG. 6C)
Procedure: as §1, §2, §3

IL-17 = IL-17 level in ear tissue of ICD mice (ELISA); assay type: in vivo, Balb/c female mice; conditions: t=6 h after croton oil, 0.5% ointment (FIG. 6D)
Procedure: as §1, §2, §3

IL-13 = IL-13 level in ear tissue of ICD mice (ELISA); assay type: in vivo, Balb/c female mice; conditions: 0.5% ointment at t=3 h, measured at t=6 h (FIG. 7)
Procedure: as §1
The assumed anti-inflammatory activity of the zinc-nocardamine complex was tested by measuring the concentrations of various anti-inflammatory cytokines, specifically, IL-4, IL-10 and IL-13, in ear tissue of mice. The concentrations of these cytokines were measured and their pattern of change along the experiment was compared for each: at baseline t=0 (no exposure), at t=3 h after exposure to croton oil, at t=6 h after exposure to croton oil, and at 6 h after exposure to croton oil where these ears had been treated with the zinc-nocardamine complex at t=3 h after the exposure to the croton oil. […] The concentration of the cytokines was determined by ELISA method, using commercially available ELISA kits, according to the Manufacturer protocol (RayBiotech, GA, USA; Diaclone, Besançon, France).

E. coli (EPEC) = assay: Bacterial growth curves (OD, 96-well plate, 24 h); assay type: cell-based, Escherichia coli; conditions: 1.7 mg/ml (FIG. 8A)
Procedure: (§4) The anti-bacterial effect of zinc-nocardamine was assessed on the following types of pathogenic bacteria: E. coli (Gram-negative), P. aeruginosa (Gram-negative) and S. aureus (Gram-positive) (isolated in Hadassah-Ein Karem Hospital). More specifically, the experiment was performed as following: Each bacterial strain was grown overnight at 37° C., under aeration of 200 rpm, in the appropriate medium (EPEC (E. coli)) and P. aeruginosa in LB broth, S. aureus in BHI broth. Both media were purchased from BD (NJ, USA). Series of three-fold consecutive dilutions were performed in a 96-well plate, and bacteria were then added to the wells at a final OD600 of 0.01. The experiments with all three strains were performed in duplicate. […] Then the plate was incubated in a plate reader for 24 h, and the kinetics of OD measurements were recorded every 20 minutes by Eon plate reader (BioTek, VE, USA). […]
(§5) The anti-bacterial effect of zinc-nocardamine was assessed on the following types of pathogenic bacteria: E. coli (Gram-negative), P. aeruginosa (Gram-negative) and S. aureus (Gram-positive) (isolated in Hadassah-Ein Karem Hospital). […] The plate was then incubated in a plate reader for 24 h, and the kinetics of OD measurements were recorded, every 20 minutes. […]

P. aeruginosa [3] = assay: Bacterial growth curves (OD, 96-well plate, 24 h); assay type: cell-based, Pseudomonas aeruginosa; conditions: 1.7 mg/ml (FIG. 8B)
Procedure: as §4, §5

S. aureus [4] = assay: Bacterial growth curves (OD, 96-well plate, 24 h); assay type: cell-based, Staphylococcus aureus
Procedure: as §4, §5

E. coli = assay: Bactericidal activity (bacterial viability) on Petri dishes; assay type: cell-based, Escherichia coli; conditions: 5 mg/ml (FIG. 9A)
Procedure: (§6) The concentrations of zinc-nocardamine, in four quadrants (1-4) of a Petri dish, were set as follows: 1-0 mg/ml; 2-5 mg/ml; 3-1.7 mg/ml; 4-0.5 mg/ml.
(§7) The anti-bacterial effect of zinc-nocardamine was assessed on the following types of pathogenic bacteria: E. coli (Gram-negative), P. aeruginosa (Gram-negative) and S. aureus (Gram-positive) (isolated in Hadassah-Ein Karem Hospital). More specifically, the experiment was performed as following: Each bacterial strain was grown overnight at 37° C., under aeration of 200 rpm, in the appropriate medium (EPEC (E. coli)) and P. aeruginosa in LB broth, S. aureus in BHI broth. Both media were purchased from BD (NJ, USA). Series of three-fold consecutive dilutions were performed in a 96-well plate, and bacteria were then added to the wells at a final OD600 of 0.01. The experiments with all three strains were performed in duplicate. Zinc-nocardamine 10 mg/ml aqueous solution was prepared in advance; prior to the experiment it was diluted in the appropriate media in a ratio of 1:2, to obtain a stock concentration of 5 mg/ml. This stock was further diluted to 1.7, 0.5, 0.18, 0.06, 0.02, 0.002, 0.0007, and 0.0002 mg/ml and added to appropriate wells. Then the plate was incubated in a plate reader for 24 h, and the kinetics of OD measurements were recorded every 20 minutes by Eon plate reader (BioTek, VE, USA). […]

P. aeruginosa [5] = assay: as above; assay type: cell-based, Pseudomonas aeruginosa; conditions: 5 mg/ml (FIG. 9B)
Procedure: as §6, §7

S. aureus [6] = assay: as above; assay type: cell-based, Staphylococcus aureus; conditions: 5 mg/ml (FIG. 9C)
Procedure: as §6, §7

[7] = system: Bombyx mori (silkworm) ovary-derived cultured cell line cells; conditions: reported in the literature; cited from earlier work

CC(=O)N(O)CCCCCNC(=O)CCC(=O)N(O)CCCCCNC(=O)CCC(=O)N(O)CCCCCN [desferrioxamine B]
water solubility [1]: about 50 mg/ml

zinc-nocardamine complex
optimal concentration in Vaseline-based ointment ([2]; dose-response 0.1, 0.2, 0.5%, applied 3 h after irritant (FIG. 3)): 0.5% | concentration of IL-1α in ear tissue (IL-1α): reduced the concentration of the cytokines to nearly the basal level | concentration of IL-6 in ear tissue (IL-6): reduced the concentration of the cytokines to nearly the basal level | concentration of TNF-α in ear tissue (TNF-α): reduced the concentration of the cytokines to nearly the basal level | concentration of IL-17 in ear tissue (IL-17): reduced the concentration of the cytokines to nearly the basal level | IL-13 level in ear tissue (IL-13): restoring the IL-13 level back to its baseline level | growth inhibition of E. coli (E. coli (EPEC)): growth inhibition was observed | growth inhibition of P. aeruginosa (P. aeruginosa [3]): mild inhibition | growth inhibition of S. aureus (S. aureus [4]; 0.5 mg/ml (FIG. 8C)): growth inhibition was observed | growth inhibition of S. aureus (S. aureus [4]; 1.7 mg/ml (FIG. 8C)): growth inhibition was observed | bactericidal activity on E. coli (E. coli): bactericidal activity was obtained | bactericidal activity on P. aeruginosa (P. aeruginosa [5]): bactericidal activity was obtained | bactericidal activity on S. aureus (S. aureus [6]): bactericidal activity was obtained

O=C1CCC(=O)N(O)CCCCCNC(=O)CCC(=O)N(O)CCCCCNC(=O)CCC(=O)N(O)CCCCCN1 [nocardamine]
recovery from ICD versus untreated and zinc-nocardamine groups ([2]; 0.5% w/w ointment applied 3 h after croton oil (FIG. 2B)): recovered better than the untreated ones, their recovery was much slower than the recovery observed in mice that received zinc-nocardamine complex | water solubility (description) [1]: soluble in water with heating | change of cell morphology [7]: change the morphology of insect Bombyx mori (silkworm) ovary-derived cultured cell line cells into spindle-like configuration
